# Tests used:
# HPK1 = HPK1 (Homo sapiens (Human), UniProt Q92918); test: HPK1 kinase activity inhibition test (ADP-Glo, luminescence); type: biochemical; conditions: HPK1 5 nM, ATP 2 μM, read-out: IC50, inhibitory effects of compounds on HPK1 kinase activity
# Summary of the method: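 HPK1 autophosphorylation was run without added substrate. Kinase and compound were preincubated 10 min at 25° C., then ATP was added for 60 min at 25° C. ADP formed was detected by ADP-Glo luminescence, and IC50 was taken from a four-parameter nonlinear fit.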
# Human Jurkat-E6-1 cells = test: Measurement of IL-2 secretion of Jurkat cells by ELISA; type: cell-based; conditions: Homo sapiens, Jurkat E6.1, anti-CD3/anti-CD28 stimulation 24 hours, read-out: Percentage of the amount of IL-2 secreted from compound treated/DMSO-treated cells; for activity at 1 µM: test compound 1.0 μM; for activity at 3 µM: test compound 3.0 μM; for activity at 0.33 µM: test compound 0.33 μM
# Protocol: 2. Measurement of IL-2 Secretion of Jurkat Cells by ELISA
# Human Jurkat-E6-1 cells were incubated with various concentrations of test compounds for 30 minutes in a humidified incubator at 37° C. and […]. Cells were transferred to cell culture plates pre-coated with anti-human CD3 antibody, then soluble anti-human CD28 antibody was added, and cells were stimulated for 24 hours at 37° C. and 5% CO2 in a humidified incubator. The cell culture medium was collected by centrifugation, and was then transferred to a 96-well transparent microtiter plate (Thermo) pre-coated with anti-human IL-2 antibody, incubated at room temperature for 2 hours, and gently shaken, washed with washing buffer for 4 times, and then followed the ELISA MAX Deluxe Set Human IL-2 (BioLegend) kit procedure, used a microplate reader (Molecular Device, i3X) to read the GD value. The best standard curve was selected by the microplate reader application software, and the corresponding concentration was calculated according to the GD value of the standard. Results are expressed as a percentage of the amount of IL-2 secreted from compound-treated/DMSO-treated cells.
# Chain of HPK1 (Q92918 whole entry): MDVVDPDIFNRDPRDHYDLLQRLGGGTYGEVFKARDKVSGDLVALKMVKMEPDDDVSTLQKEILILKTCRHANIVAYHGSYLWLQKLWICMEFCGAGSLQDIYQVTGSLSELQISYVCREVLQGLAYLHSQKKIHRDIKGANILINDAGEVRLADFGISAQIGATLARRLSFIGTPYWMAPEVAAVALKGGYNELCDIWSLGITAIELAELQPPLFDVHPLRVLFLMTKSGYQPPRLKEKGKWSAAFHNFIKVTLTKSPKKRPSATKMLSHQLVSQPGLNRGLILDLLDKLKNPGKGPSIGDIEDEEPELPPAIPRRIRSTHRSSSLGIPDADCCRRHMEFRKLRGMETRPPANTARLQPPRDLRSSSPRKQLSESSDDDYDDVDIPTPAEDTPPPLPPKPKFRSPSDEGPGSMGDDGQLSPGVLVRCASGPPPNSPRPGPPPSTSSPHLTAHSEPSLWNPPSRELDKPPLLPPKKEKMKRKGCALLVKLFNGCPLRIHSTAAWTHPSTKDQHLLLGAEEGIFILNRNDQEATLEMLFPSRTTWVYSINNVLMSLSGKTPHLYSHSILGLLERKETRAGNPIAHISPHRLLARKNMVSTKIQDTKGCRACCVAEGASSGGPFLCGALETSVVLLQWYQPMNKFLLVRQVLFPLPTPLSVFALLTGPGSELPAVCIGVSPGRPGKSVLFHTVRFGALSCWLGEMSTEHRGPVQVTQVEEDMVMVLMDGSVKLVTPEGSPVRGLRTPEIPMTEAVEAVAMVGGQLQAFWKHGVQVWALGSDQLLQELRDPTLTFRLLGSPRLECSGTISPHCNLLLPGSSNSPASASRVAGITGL
IC50 (HPK1) [nM],SMILES,activity at 1 µM (Human Jurkat-E6-1 cells) [%],activity at 3 µM (Human Jurkat-E6-1 cells) [%],activity at 0.33 µM (Human Jurkat-E6-1 cells) [%]
500 to 2000,"COc1cc(N2CCN(C)CC2)ccc1-c1n[nH]c2cc(=O)n(-c3c(C)cccc3F)nc12 [Compound 16, 5-(2-fluoro-6-methylphenyl)-3-(2-methoxy-4-(4-methylpiperazin-1-yl)phenyl)-1H-pyrazolo[4,3-c]pyridazin-6(5H)-one]",156,,
50 to 500,COc1cccc(F)c1-n1nc2c(-c3cnn(C4CCN(C)CC4)c3)n[nH]c2cc1=O [Compound 20],329,,
50 to 500,"COc1cccc(F)c1-n1nc2c(-c3cnn(C)c3)n[nH]c2cc1=O [Compound 21, 5-(2-fluoro-6-methoxyphenyl)-3-(1-methyl-1H-pyrazol-4-yl)-1H-pyrazolo[4,3-c]pyridazin-6(5H)-one]",,258,
50 to 500,"COc1ccc(-n2nc3c(-c4ccc(N5CCN(C)CC5)cc4)n[nH]c3cc2=O)c(OC)c1 [Compound 25, 5-(2,4-dimethoxyphenyl)-3-(4-(4-methylpiperazin-1-yl)phenyl)-1H-pyrazolo[4,3-c]pyridazin-6(5H)-one]",187,,
≤ 50,"COc1cccc(F)c1-n1nc2c(-c3ccc(N4CCOCC4)nc3)n[nH]c2cc1=O [Compound 27, 5-(2-fluoro-6-methoxyphenyl)-3-(6-morpholinopyrid-3-yl)-1H-pyrazolo[4,3-c]pyridazin-6(5H)-one]",,,302
≤ 50,"COc1cccc(F)c1-n1nc2c(-c3cnc(N4CCN(C)CC4)nc3)n[nH]c2cc1=O [Compound 28, 5-(2-fluoro-6-methoxyphenyl)-3-(2-(4-methylpiperazin-1-yl)pyrimidin-5-yl)-1H-pyrazolo[4,3-c]pyridazin-6(5H)-one]",302,,
≤ 50,"CC(C)c1cccc(F)c1-n1nc2c(-c3ccc(N4CCN(C)CC4)cc3)n[nH]c2cc1=O [Compound 29, 5-(2-fluoro-6-isopropylphenyl)-3-(4-(4-methylpiperazin-1-yl)phenyl)-1H-pyrazolo[4,3-c]pyridazin-6(5H)-one]",291,,
≤ 50,"COc1cccc(F)c1-n1nc2c(-c3ccc(N4CCN(C)C(=O)C4)cc3)n[nH]c2cc1=O [Compound 33, 5-(2-fluoro-6-methoxyphenyl)-3-(4-(4-methyl-3-oxo-piperazin-1-yl)phenyl)-1H-pyrazolo [4,3-c]pyridazin-6(5H)-one]",631,,
≤ 50,"CN1CCN(c2ccc(-c3n[nH]c4cc(=O)n(-c5c(F)cccc5C5CC5)nc34)cc2)CC1 [Compound 34, 5-(2-fluoro-6-cyclopropylphenyl)-3-(4-(4-methylpiperazin-1-yl)phenyl)-1H-pyrazolo[4,3-c]pyridazin-6(5H)-one]",284,,
≤ 50,"Cc1cc(C#N)cc(F)c1-n1nc2c(-c3ccc(N4CCN(C)CC4)cc3)n[nH]c2cc1=O [Compound 42, 3-fluoro-5-methyl-4-(3-(4-(4-methylpiperazin-1-yl)phenyl)-6-oxo-1H-pyrazolo[4,3-c]pyridazin-5(6H)-yl)benzonitrile]",,365,
50 to 500,"Cc1cccc(F)c1-n1nc2c(-c3ccc(N4CCN(C5CC5)CC4)cc3)n[nH]c2cc1=O [Compound 58, 3-(4-(4-cyclopropylpiperazin-1-yl)phenyl)-5-(2-fluoro-6-methylphenyl)-1H-pyrazolo[4,3-c]pyridazin-6(5H)-one]",,233,
≤ 50,"COc1cccc(F)c1-n1nc2c(-c3ccc4c(c3)CN(C)CC4)n[nH]c2cc1=O [Compound 73, 5-(2-fluoro-6-methoxyphenyl)-3-(2-methyl-1,2,3,4-tetrahydroisoquinolin-7-yl)-1H-pyrazolo[4,3-c]pyridazin-6(5H)-one]",,926,
≤ 50,"COc1cc(C#N)cc(F)c1-n1nc2c(-c3ccc(N4CCN(C)CC4)cc3)n[nH]c2cc1=O [Compound 74, 3-fluoro-5-methoxy-4-(3-(4-(4-methylpiperazin-1-yl)phenyl)-6-oxo-1H-pyrazolo[4,3-c]pyridazin-5(6H)-yl)benzonitrile]",,411,
≤ 50,CN1CCN(c2ccc(-c3n[nH]c4cc(=O)n(-c5cccc6c5OCO6)nc34)cc2)CC1 [Compound 76],,561,
≤ 50,"COc1cc(F)cc(F)c1-n1nc2c(-c3ccc(N4CCN(C)CC4)cc3)n[nH]c2cc1=O [Compound 77, 5-(2,4-difluoro-6-methoxyphenyl)-3-(4-(4-methylpiperazin-1-yl)phenyl)-1H-pyrazolo[4,3-c]pyridazin-6(5H)-one]",233,,
≤ 50,"CNC(=O)c1cc(F)c(-n2nc3c(-c4ccc(N5CCN(C)CC5)cc4)n[nH]c3cc2=O)c(OC)c1 [Compound 79, 3-fluoro-5-methoxy-N-methyl-4-(3-(4-(4-methylpiperazin-1-yl)phenyl)-6-oxo-1H-pyrazolo[4,3-c]pyridazin-5(6H)-yl)benzamide]",,361,
≤ 50,"COc1cc(C(=O)N(C)C)cc(F)c1-n1nc2c(-c3ccc(N4CCN(C)CC4)cc3)n[nH]c2cc1=O [Compound 80, 3-fluoro-5-methoxy-N,N-dimethyl-4-(3-(4-(4-methylpiperazin-1-yl)phenyl)-6-oxo-1H-pyrazolo[4,3-c]pyridazin-5(6H)-yl)benzamide]",,191,
≤ 50,"[2H]C([2H])([2H])N1CCN(c2ccc(-c3n[nH]c4cc(=O)n(-c5c(C)cccc5F)nc34)cc2)CC1 [Compound 81, 5-(2-fluoro-6-methylphenyl)-3-(4-(4-(methyl-d3)piperazin-1-yl)phenyl)-1H-pyrazolo[4,3-c]pyridazin-6(5H)-one]",,679,
≤ 50,Cc1cc(C#N)cc(F)c1-n1nc2c(-c3ccc(N4CCN(C(=O)[C@H](C)N)CC4)cc3)n[nH]c2cc1=O [Compound 82],,195,
≤ 50,Cc1cc(C#N)cc(F)c1-n1nc2c(-c3ccc(N4CCN(C(=O)C(C)O)CC4)cc3)n[nH]c2cc1=O (centres unmarked) [Compound 83],,252,
≤ 50,"Cc1cc(C#N)cc(F)c1-n1nc2c(-c3ccc(N4CCN(C5CCOC5)CC4)cc3)n[nH]c2cc1=O (centres unmarked) [Compound 85, 3-fluoro-5-methyl-4-(6-oxo-3-(4-(4-(tetrahydrofuran-3-yl)piperazin-1-yl)phenyl)-1H-pyrazolo[4,3-c]pyridazin-5(6H)-yl)benzonitrile]",,239,
≤ 50,"COc1cc(C#N)cc(F)c1-n1nc2c(-c3ccc(N4CCN(C5COC5)CC4)cc3)n[nH]c2cc1=O [Compound 86, 3-fluoro-5-methoxy-4-(3-(4-(4-(oxetan-3-yl)piperazin-1-yl)phenyl)-6-oxo-1H-pyrazolo[4,3-c]pyridazin-5(6H)-yl)benzonitrile]",,334,
≤ 50,Cc1cccc(F)c1-n1nc2c(-c3ccc(N4C[C@@H]5C[C@H]4CN5C)cc3)n[nH]c2cc1=O [Compound 87],,584,
50 to 500,"Cc1cccc(F)c1-n1nc2c(-c3ccc(N4C[C@H]5C[C@@H]4CN5C)cc3)n[nH]c2cc1=O [Compound 88, 5-(2-fluoro-6-methylphenyl)-3-(4-((1R,4R)-5-methyl-2,5-diazabicyclo[2.2.1]heptan-2-yl)phenyl)-1H-pyrazolo[4,3-c]pyridazin-6(5H)-one]",,550,
≤ 50,"Cc1cccc(F)c1-n1nc2c(-c3ccc(N4CCN(C)C(C)(C)C4)cc3)n[nH]c2cc1=O [Compound 89, 5-(2-fluoro-6-methylphenyl)-3-(4-(3,3,4-trimethylpiperazin-1-yl)phenyl)-1H-pyrazolo[4,3-c]pyridazin-6(5H)-one]",,689,
≤ 50,"Cc1cccc(F)c1-n1nc2c(-c3ccc(N4C[C@@H](C)N(C)[C@@H](C)C4)cc3)n[nH]c2cc1=O [Compound 90, 5-(2-fluoro-6-methylphenyl)-3-(4-((3S,5R)-3,4,5-trimethylpiperazin-1-yl)phenyl)-1H-pyrazolo[4,3-c]pyridazin-6(5H)-one]",,667,

SMILES,IC50 (HPK1) [nM],activity at 1 µM (Human Jurkat-E6-1 cells) [%],activity at 3 µM (Human Jurkat-E6-1 cells) [%],activity at 0.33 µM (Human Jurkat-E6-1 cells) [%]
"COc1cccc(F)c1-n1nc2c(-c3ccc(C4=CCN(C)CC4)cc3)n[nH]c2cc1=O [Compound 23, 5-(2-fluoro-6-methoxyphenyl)-3-(4-(1-methyl-1,2,3,6-tetrahydro-pyridin-4-yl)phenyl)-1H-pyrazolo[4,3-c]pyridazin-6(5H)-one]",≤ 50,,,379
"Cc1cccc(F)c1-n1nc2c(-c3ccc(N4CC5CCC(C4)N5C)cc3)n[nH]c2cc1=O [Compound 61, 5-(2-fluoro-6-methylphenyl)-3-(4-(8-methyl-3,8-diazabicyclo[3.2.1]octan-3-yl)phenyl)-1H-pyrazolo[4,3-c]pyridazin-6(5H)-one]",≤ 50,,635,

# From patent publication US20230322789A1, “PYRAZOLOPYRIDAZINONE COMPOUND, AND PHARMACEUTICAL COMPOSITION AND USE THEREOF” (BroadenBio Co., Ltd., priority 2020, published 2023)
